Reference: the NIST ThermoML archive (doi:10.1016/j.tca.2018.11.018)

Experiment: xn = mol fraction of the nth substance listed
Conditions: 100 kPa, Liquid; for viscosity: Falling or rolling sphere viscometry; for mass density: Vibrating tube method

CC[N+]1(C)CCCCC1.[Br-] [N-ethyl-N-methylpiperidinium bromide] + O
Conditions	mass density [kg/m3]	viscosity [mPa·s]
298.15 K, x1 = 0.02	1042.3	1.263
298.15 K, x1 = 0.046	1088.3	2.026
298.15 K, x1 = 0.065	1116.9	2.813
298.15 K, x1 = 0.085	1141.4	3.992
298.15 K, x1 = 0.11	1167.4	6.16
298.15 K, x1 = 0.14	1192.2	11.35
298.15 K, x1 = 0.18	1217.8	20.55
298.15 K, x1 = 0.221	1237.8	36.06
298.15 K, x1 = 0.27	1255.2	68.76
298.15 K, x1 = 0.321	1268.9	135.3
303.15 K, x1 = 0.02	1040.5	1.124
303.15 K, x1 = 0.046	1085.9	1.783
303.15 K, x1 = 0.065	1114.2	2.444
303.15 K, x1 = 0.085	1138.5	3.419
303.15 K, x1 = 0.11	1164.3	5.175
303.15 K, x1 = 0.14	1189	9.449
303.15 K, x1 = 0.18	1214.4	16.67
303.15 K, x1 = 0.221	1234.4	28.38
303.15 K, x1 = 0.27	1251.8	51.92
303.15 K, x1 = 0.321	1265.5	98.65
308.15 K, x1 = 0.02	1038.6	1.011
308.15 K, x1 = 0.046	1083.5	1.59
308.15 K, x1 = 0.065	1111.5	2.147
308.15 K, x1 = 0.085	1135.5	2.967
308.15 K, x1 = 0.11	1161.2	4.41
308.15 K, x1 = 0.14	1185.7	7.861
308.15 K, x1 = 0.18	1211	13.6
308.15 K, x1 = 0.221	1230.9	22.48
308.15 K, x1 = 0.27	1248.4	39.91
308.15 K, x1 = 0.321	1262.1	73.14
313.15 K, x1 = 0.02	1036.4	0.915
313.15 K, x1 = 0.046	1081.1	1.421
313.15 K, x1 = 0.065	1108.7	1.901
313.15 K, x1 = 0.085	1132.5	2.595
313.15 K, x1 = 0.11	1158	3.8
313.15 K, x1 = 0.14	1182.3	6.584
313.15 K, x1 = 0.18	1207.5	11.17
313.15 K, x1 = 0.221	1227.4	18.06
313.15 K, x1 = 0.27	1244.9	31
313.15 K, x1 = 0.321	1258.6	54.37
318.15 K, x1 = 0.02	1034.1	0.834
318.15 K, x1 = 0.046	1078.7	1.279
318.15 K, x1 = 0.065	1105.9	1.697
318.15 K, x1 = 0.085	1129.5	2.287
318.15 K, x1 = 0.11	1154.8	3.301
318.15 K, x1 = 0.14	1178.9	5.574
318.15 K, x1 = 0.18	1204.1	9.251
318.15 K, x1 = 0.221	1223.9	14.7
318.15 K, x1 = 0.27	1241.4	24.63
318.15 K, x1 = 0.321	1255.2	42.07
323.15 K, x1 = 0.02	1031.6	0.767
323.15 K, x1 = 0.046	1075.9	1.162
323.15 K, x1 = 0.065	1102.9	1.522
323.15 K, x1 = 0.085	1126.3	2.045
323.15 K, x1 = 0.11	1151.5	2.895
323.15 K, x1 = 0.14	1175.5	4.742
323.15 K, x1 = 0.18	1200.6	7.76
323.15 K, x1 = 0.221	1220.4	12.15
323.15 K, x1 = 0.27	1237.9	19.99
323.15 K, x1 = 0.321	1251.8	33.03
328.15 K, x1 = 0.02	1029	0.709
328.15 K, x1 = 0.046	1073	1.063
328.15 K, x1 = 0.065	1099.9	1.378
328.15 K, x1 = 0.085	1123.1	1.83
328.15 K, x1 = 0.11	1148.1	2.563
328.15 K, x1 = 0.14	1172.1	4.087
328.15 K, x1 = 0.18	1197	6.616
328.15 K, x1 = 0.221	1216.9	10.15
328.15 K, x1 = 0.27	1234.4	16.44
328.15 K, x1 = 0.321	1248.3	26.76
333.15 K, x1 = 0.02	1026.3	0.656
333.15 K, x1 = 0.046	1070.2	0.976
333.15 K, x1 = 0.065	1096.7	1.249
333.15 K, x1 = 0.085	1119.9	1.65
333.15 K, x1 = 0.11	1144.7	2.285
333.15 K, x1 = 0.14	1168.6	3.555
333.15 K, x1 = 0.18	1193.5	5.691
333.15 K, x1 = 0.221	1213.4	8.658
333.15 K, x1 = 0.27	1230.9	13.81
333.15 K, x1 = 0.321	1244.9	21.95
338.15 K, x1 = 0.02	1023.5	0.616
338.15 K, x1 = 0.046	1067.1	0.9
338.15 K, x1 = 0.065	1093.5	1.142
338.15 K, x1 = 0.085	1116.9	1.495
338.15 K, x1 = 0.11	1141.4	2.046
338.15 K, x1 = 0.14	1165.1	3.13
338.15 K, x1 = 0.18	1189.9	4.925
338.15 K, x1 = 0.221	1209.8	7.418
338.15 K, x1 = 0.27	1227.4	11.66
338.15 K, x1 = 0.321	1241.4	18.17
343.15 K, x1 = 0.02	1020.4	0.579
343.15 K, x1 = 0.046	1063.9	0.835
343.15 K, x1 = 0.065	1090.3	1.05
343.15 K, x1 = 0.085	1113.8	1.363
343.15 K, x1 = 0.11	1137.9	1.845
343.15 K, x1 = 0.14	1161.5	2.616
343.15 K, x1 = 0.18	1186.3	4.343
343.15 K, x1 = 0.221	1206.2	6.433
343.15 K, x1 = 0.27	1223.9	10.03
343.15 K, x1 = 0.321	1238	15.35
348.15 K, x1 = 0.02	1016.6	0.548
348.15 K, x1 = 0.046	1060.6	0.778
348.15 K, x1 = 0.065	1087	0.967
348.15 K, x1 = 0.085	1110.3	1.247
348.15 K, x1 = 0.11	1134.3	1.67
348.15 K, x1 = 0.14	1157.9	2.352
348.15 K, x1 = 0.18	1182.7	3.798
348.15 K, x1 = 0.221	1202.6	5.613
348.15 K, x1 = 0.27	1220.3	8.668
348.15 K, x1 = 0.321	1234.5	13.11
